# Source: US20260317299A1, “PIKFYVE PROTEIN KINASE DEGRADATION AGENT AND USE THEREOF” (Shanghai Institute of Organic Chemistry, Chinese Academy of …, priority 2023, published 2026)
# Molecular target: T1, PIKfyve (Homo sapiens, UniProt Q9Y2I7)
# T1 construct: endogenous in cells; host or cells: VCaP
# Assay: Degradation of PIKfyve proteins in VCaP tumor cells (24 h, Western blot)
# Type: cell-based
# Settings: 37° C., compared with DMSO control, WB, read-out: DC50 (concentration that achieves 50% degradation activity)
# Procedure, shortened: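 VCaP cells (5×10^6 cells/ml) treated with a range of compound concentrations at 37° C for 24 h, then lysed in SDS buffer. PIKfyve level measured by Western blot with GAPDH as loading control and ECL detection. DC50 is the concentration giving 50% degradation relative to DMSO control.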
# T1 sequence (Q9Y2I7 whole entry): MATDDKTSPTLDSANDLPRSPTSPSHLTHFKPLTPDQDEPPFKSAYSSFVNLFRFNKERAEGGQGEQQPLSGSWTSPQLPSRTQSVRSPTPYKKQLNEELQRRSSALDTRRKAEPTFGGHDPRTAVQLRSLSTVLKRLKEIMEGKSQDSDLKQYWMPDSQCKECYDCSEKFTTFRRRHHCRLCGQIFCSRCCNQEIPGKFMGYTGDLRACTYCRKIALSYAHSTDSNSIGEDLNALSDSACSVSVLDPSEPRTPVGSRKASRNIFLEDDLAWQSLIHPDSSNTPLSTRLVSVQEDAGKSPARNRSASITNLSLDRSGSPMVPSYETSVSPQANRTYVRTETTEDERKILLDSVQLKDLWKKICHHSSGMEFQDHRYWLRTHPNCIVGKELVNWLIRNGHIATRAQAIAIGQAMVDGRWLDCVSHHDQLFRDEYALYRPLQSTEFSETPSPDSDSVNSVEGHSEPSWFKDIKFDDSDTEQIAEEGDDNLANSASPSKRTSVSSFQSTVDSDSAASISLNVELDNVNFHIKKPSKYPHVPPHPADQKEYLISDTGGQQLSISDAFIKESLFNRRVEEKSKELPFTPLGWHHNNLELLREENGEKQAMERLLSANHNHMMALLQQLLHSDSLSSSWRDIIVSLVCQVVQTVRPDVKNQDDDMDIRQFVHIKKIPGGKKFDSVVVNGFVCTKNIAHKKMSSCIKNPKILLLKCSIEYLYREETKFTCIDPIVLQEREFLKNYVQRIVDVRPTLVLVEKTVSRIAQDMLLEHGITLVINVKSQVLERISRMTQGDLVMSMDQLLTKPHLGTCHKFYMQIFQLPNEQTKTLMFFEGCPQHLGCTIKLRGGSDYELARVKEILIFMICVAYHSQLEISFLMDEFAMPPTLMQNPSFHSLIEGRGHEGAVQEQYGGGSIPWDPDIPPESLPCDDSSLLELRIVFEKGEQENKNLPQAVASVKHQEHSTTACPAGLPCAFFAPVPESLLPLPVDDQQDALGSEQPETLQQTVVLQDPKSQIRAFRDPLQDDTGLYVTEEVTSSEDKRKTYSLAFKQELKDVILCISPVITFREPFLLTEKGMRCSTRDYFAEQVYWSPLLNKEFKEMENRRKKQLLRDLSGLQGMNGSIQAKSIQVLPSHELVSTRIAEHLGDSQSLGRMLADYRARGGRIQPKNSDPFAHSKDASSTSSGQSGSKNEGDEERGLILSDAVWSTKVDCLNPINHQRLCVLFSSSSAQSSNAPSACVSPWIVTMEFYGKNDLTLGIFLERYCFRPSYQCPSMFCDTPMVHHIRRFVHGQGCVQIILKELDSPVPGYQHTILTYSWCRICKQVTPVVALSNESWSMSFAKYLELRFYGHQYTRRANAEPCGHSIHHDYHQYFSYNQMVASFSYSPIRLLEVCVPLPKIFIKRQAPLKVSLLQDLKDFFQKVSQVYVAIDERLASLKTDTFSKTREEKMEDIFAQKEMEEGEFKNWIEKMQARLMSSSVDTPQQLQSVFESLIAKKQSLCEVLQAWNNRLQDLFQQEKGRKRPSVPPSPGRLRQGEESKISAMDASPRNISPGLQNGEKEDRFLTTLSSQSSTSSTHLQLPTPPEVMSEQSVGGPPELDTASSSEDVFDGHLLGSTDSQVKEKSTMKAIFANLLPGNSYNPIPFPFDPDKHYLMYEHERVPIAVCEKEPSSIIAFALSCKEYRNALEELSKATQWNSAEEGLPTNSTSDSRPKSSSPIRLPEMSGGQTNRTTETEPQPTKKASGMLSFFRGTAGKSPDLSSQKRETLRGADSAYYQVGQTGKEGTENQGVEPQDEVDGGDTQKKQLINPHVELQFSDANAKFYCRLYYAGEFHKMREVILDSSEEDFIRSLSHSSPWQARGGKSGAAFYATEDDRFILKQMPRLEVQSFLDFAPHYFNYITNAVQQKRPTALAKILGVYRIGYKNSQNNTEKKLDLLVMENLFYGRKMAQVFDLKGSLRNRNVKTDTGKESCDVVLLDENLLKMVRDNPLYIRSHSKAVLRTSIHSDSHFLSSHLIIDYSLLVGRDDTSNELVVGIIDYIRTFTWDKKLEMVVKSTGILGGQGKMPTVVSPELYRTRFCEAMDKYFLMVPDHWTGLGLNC
row,SMILES,DC50
1,"Cc1cccc(/C=N/Nc2cc(N3CCOCC3)nc(OCCc3ccc(NC(=O)CCCCCNC(=O)CSC(C)(C)[C@H](NC(=O)C4(F)CC4)C(=O)N4C[C@H](O)C[C@H]4C(=O)NCc4ccc(-c5scnc5C)cc4)cc3)n2)c1 [Example 60, (2S,4R)-1-((R)-2-(1-fluorocyclopropane-1-carboxamido)-3-methyl-3-((2-((6-((4-(2-((4-(2-((E)-3-methylbenzylidene)hydrazino)-6-morpholinopyrimidin-2-yl)oxy)ethyl)phenyl)amino)-6-oxohexyl)amino)-2-oxoethyl)thio)butanoyl)-4-hydroxy-N-(4-(4-methylthiazol-5-yl)benzyl)pyrrolidine-2-carboxamide]",100 to 10000 nM
2,"Cc1cccc(-c2ccn(-c3cc(N4CCOCC4)nc(OC4CCN(c5ccc(N6CCN(C(=O)CCCC[C@H](NC(=O)[C@@H]7C[C@@H](O)CN7C(=O)[C@@H](NC(=O)C7(F)CC7)C(C)(C)C)c7ccc(-c8scnc8C)cc7)CC6)cc5)CC4)n3)n2)c1 [Example 86, (2S,4R)-1-((S)-2-(1-fluorocyclopropane-1-carboxamido)-3,3-dimethylbutanoyl)-4-hydroxy-N—((S)-1-(4-(4-methylthiazol-5-yl)phenyl)-6-(4-(4-(4-((4-morpholino-6-(3-(m-tolyl)-1H-pyrazol-1-yl)pyrimidin-2-yl)oxy)piperidin-1-yl)phenyl)piperazin-1-yl)-6-oxohexyl) pyrrolidine-2-carboxamide]",1 to 100 nM
3,"Cc1cccc(/C=N/Nc2cc(N3CCOCC3)nc(OCCNC(=O)CCCCCCC(=O)N[C@H](C(=O)N3C[C@H](O)C[C@H]3C(=O)NCc3ccc(-c4scnc4C)cc3)C(C)(C)C)n2)c1 [Example 63, N^1—((S)-1-((2S,4R)-4-hydroxy-2-((4-(4-methylthiazol-5-yl)benzyl)carbamoyl)pyrrolidine-1-yl)-3,3-dimethyl-1-oxobutan-2-yl)-N-(2-((4-(2-((E)-3-methylbenzylidene) hydrazino)-6-morpholinopyrimidin-2-yl)oxy)ethyl)octanediamide]",100 to 10000 nM
4,"Cc1cccc(/C=N/Nc2cc(N3CCOCC3)nc(OCCc3ccc(NC(=O)CCCCCCCCC(=O)Nc4cccc5c4CN(C4CCC(=O)NC4=O)C5=O)cc3)n2)c1 (stereo not drawn) [Example 22, (E)-N^1-(2-(2,6-dioxopiperidin-3-yl)-1-oxoisoindolin-4-yl)-N^10-(4-(2-((4-(2-(3-methylbenzylidene)hydrazino)-6-morpholinopyrimidin-2-yl)oxy)ethyl)phenyl)decanediamide]",100 to 10000 nM
5,"Cc1cccc(/C=N/Nc2cc(N3CCOCC3)nc(OCCc3ccc(NC(=O)CCCNc4ccc5c(c4)C(=O)N(C4CCC(=O)NC4=O)C5=O)cc3)n2)c1 (stereo not drawn) [Example 16, (E)-4-((2-(2,6-dioxopiperidin-3-yl)-1,3-dioxoisoindolin-5-yl)amino)-N-(4-(2-((4-(2-(3-methylbenzylidene)hydrazino)-6-morpholinopyrimidin-2-yl)oxy)ethyl)phenyl) butanamide]",100 to 10000 nM
6,"Cc1cccc(/C=N/Nc2cc(N3CCOCC3)nc(OCCc3ccc(NC(=O)CCC(=O)Nc4ccc5c(c4)C(=O)N(C4CCC(=O)NC4=O)C5)cc3)n2)c1 (stereo not drawn) [Example 28, (E)-N^1-(2-(2,6-dioxopiperidin-3-yl)-3-oxoisoindolin-5-yl)-N^4-(4-(2-((4-(2-(3-methylbenzylidene)hydrazino)-6-morpholinopyrimidin-2-yl)oxy)ethyl)phenyl)succinimide]",1 to 100 nM
7,"Cc1cccc(/C=N/Nc2cc(N3CCOCC3)nc(OCCc3ccc(NC(=O)CCCCCCCCC(=O)N[C@H](C(=O)N4C[C@H](O)C[C@H]4C(=O)NCc4ccc(-c5scnc5C)cc4)C(C)(C)C)cc3)n2)c1 [Example 40, N^1—((S)-1-((2S,4R)-4-hydroxy-2-((4-(4-methylthiazol-5-yl)benzyl)carbamoyl)pyrrolidine-1-yl)-3,3-dimethyl-1-oxobutan-2-yl)-N^10-(4-(2-((4-(2-((E)-3-methylbenzylidene) hydrazino)-6-morpholinopyrimidin-2-yl)oxy)ethyl)phenyl)decanediamide]",1 to 100 nM
8,"Cc1cccc(/C=N/Nc2cc(N3CCOCC3)nc(OCCNC(=O)CCCCC(=O)N[C@H](C(=O)N3C[C@H](O)C[C@H]3C(=O)NCc3ccc(-c4scnc4C)cc3)C(C)(C)C)n2)c1 [Example 62, N^1—((S)-1-((2S,4R)-4-hydroxy-2-((4-(4-methylthiazol-5-yl)benzyl)carbamoyl)pyrrolidine-1-yl)-3,3-dimethyl-1-oxobutan-2-yl)-N^6-(2-((4-(2-((E)-3-methylbenzylidene) hydrazino)-6-morpholinopyrimidin-2-yl)oxy)ethyl)adipamide]",100 to 10000 nM
9,"Cc1cccc(/C=N/Nc2cc(N3CCOCC3)nc(OCCc3ccc(NC(=O)CNC(=O)CSC(C)(C)[C@H](NC(=O)C4(F)CC4)C(=O)N4C[C@H](O)C[C@H]4C(=O)NCc4ccc(-c5scnc5C)cc4)cc3)n2)c1 [Example 58, (2S,4R)-1-((R)-2-(1-fluorocyclopropane-1-carboxamido)-3-methyl-3-((2-((2-((4-(2-((4-(2-((E)-3-methylbenzylidene)hydrazino)-6-morpholinopyrimidin-2-yl)oxy)ethyl)phenyl)amino)-2-oxoethyl)amino)-2-oxoethyl)thio)butanoyl)-4-hydroxy-N-(4-(4-methylthiazol-5-yl)benzyl)pyrrolidine-2-carboxamide]",100 to 10000 nM
10,Cc1cccc(/C=N/Nc2cc(N3CCOCC3)nc(OCCc3ccc(NC(=O)CCCCCC(=O)N[C@H](C(=O)N4C[C@H](O)C[C@H]4C(=O)N[C@@H](C)c4ccc(-c5scnc5C)cc4)C(C)(C)C)cc3)n2)c1 [Example 47],1 to 100 nM
11,"Cc1cccc(/C=N/Nc2cc(N3CCOCC3)nc(OCCc3ccc(NC(=O)CCCCCCC(=O)Nc4ccc5c(c4)CN(C4CCC(=O)NC4=O)C5=O)cc3)n2)c1 (stereo not drawn) [Example 26, (E)-N^1-(2-(2,6-dioxopiperidin-3-yl)-1-oxoisoindolin-5-yl)-N^8-(4-(2-((4-(2-(3-methylbenzylidene)hydrazino)-6-morpholinopyrimidin-2-yl)oxy)ethyl)phenyl)octanediamide]",100 to 10000 nM

# Continued, values first:
row,DC50,SMILES
1,1 to 100 nM,"Cc1cccc(-c2ccn(-c3cc(N4CCOCC4)nc(OCCc4ccc(NC(=O)CNC(=O)CC[C@H](NC(=O)[C@@H]5C[C@@H](O)CN5C(=O)[C@@H](NC(=O)C5(F)CC5)C(C)(C)C)c5ccc(-c6scnc6C)cc5)cc4)n3)n2)c1 [Example 65, (2S,4R)-1-((S)-2-(1-fluorocyclopropane-1-carboxamido)-3,3-dimethylbutanoyl)-4-hydroxy-N—((S)-1-(4-(4-methylthiazol-5-yl)phenyl)-4-((2-((4-(2-((4-morpholino-6-(3-(m-tolyl)-1H-pyrazol-1-yl)pyrimidin-2-yl)oxy)ethyl)phenyl)amino)-2-oxoethyl)amino)-4-oxobutyl)pyrrolidine-2-carboxamide]"
2,100 to 10000 nM,"Cc1cccc(/C=N/Nc2cc(N3CCOCC3)nc(OCCc3ccc(NC(=O)CCCCC(=O)Nc4ccc5c(c4)CN(C4CCC(=O)NC4=O)C5=O)cc3)n2)c1 (stereo not drawn) [Example 25, (E)-N^1-(2-(2,6-dioxopiperidin-3-yl)-1-oxoisoindolin-5-yl)-N^6-(4-(2-((4-(2-(3-methylbenzylidene)hydrazino)-6-morpholinopyrimidin-2-yl)oxy)ethyl)phenyl)adipamide]"
3,1 to 100 nM,Cc1cccc(/C=N/Nc2cc(N3CCOCC3)nc(OCCc3ccc(NC(=O)CCCCCCCCC(=O)N[C@H](C(=O)N4C[C@H](O)C[C@H]4C(=O)N[C@@H](C)c4ccc(-c5scnc5C)cc4)C(C)(C)C)cc3)n2)c1 [Example 48]
4,1 to 100 nM,"Cc1cccc(-c2ccn(-c3cc(N4CCOCC4)nc(OCCc4ccc(N5CCN(C(=O)CC[C@H](NC(=O)[C@@H]6C[C@@H](O)CN6C(=O)[C@@H](NC(=O)C6(F)CC6)C(C)(C)C)c6ccc(-c7scnc7C)cc6)CC5)cc4)n3)n2)c1 [Example 76, (2S,4R)-1-((S)-2-(1-fluorocyclopropane-1-carboxamido)-3,3-dimethylbutanoyl)-4-hydroxy-N—((S)-1-(4-(4-methylthiazol-5-yl)phenyl)-4-(4-(4-(2-((4-morpholino-6-(3-(m-tolyl)-1H-pyrazol-1-yl)pyrimidin-2-yl)oxy)ethyl)phenyl)piperazin-1-yl)-4-oxobutyl)pyrrolidine-2-carboxamide]"
5,1 to 100 nM,"Cc1cccc(-c2ccn(-c3cc(N4CCOCC4)nc(OCCc4ccc(NC(=O)NC5CN(C(=O)CC[C@H](NC(=O)[C@@H]6C[C@@H](O)CN6C(=O)[C@@H](NC(=O)C6(F)CC6)C(C)(C)C)c6ccc(-c7scnc7C)cc6)C5)cc4)n3)n2)c1 [Example 74, (2S,4R)-1-((S)-2-(1-fluorocyclopropane-1-carboxamido)-3,3-dimethylbutanoyl)-4-hydroxy-N—((S)-1-(4-(4-methylthiazol-5-yl)phenyl)-4-(3-(3-(4-(2-((4-morpholino-6-(3-(m-tolyl)-1H-pyrazol-1-yl)pyrimidin-2-yl)oxy)ethyl)phenyl)ureido)azetidin-1-yl)-4-oxobutyl) pyrrolidine-2-carboxamide]"
6,1 to 100 nM,Cc1cccc(/C=N/Nc2cc(N3CCOCC3)nc(OCCc3ccc(NC(=O)CCCC(=O)N[C@H](C(=O)N4C[C@H](O)C[C@H]4C(=O)N[C@@H](C)c4ccc(-c5scnc5C)cc4)C(C)(C)C)cc3)n2)c1 [Example 45]
7,100 to 10000 nM,"Cc1cccc(/C=N/Nc2cc(N3CCOCC3)nc(OCCc3ccc(NC(=O)CCCCCNc4cccc5c4C(=O)N(C4CCC(=O)NC4=O)C5=O)cc3)n2)c1 (stereo not drawn) [Example 13, (E)-6-((2-(2,6-dioxopiperidin-3-yl)-1,3-dioxoisoindolin-4-yl)amino)-N-(4-(2-((4-(2-(3-methylbenzylidene)hydrazino)-6-morpholinopyrimidin-2-yl)oxy)ethyl)phenyl)hexanamide]"
